SMILES strings stand for the structures.

This is an account of results in patent US8440672B2, “Diphenyl substituted alkanes” (Merck Sharp & Dohme Corp., priority 2006, dated 2013).

The target in the assay is T1, FLAP (Homo sapiens, UniProt P20292).
T1 construct: A 100,000×g pellet from human leukocyte 10,000×g supernatants (1) is the source of FLAP; from tissue; host or cells: human leukocytes (100,000 x g membrane pellet)
T1 sequence (P20292 1-161): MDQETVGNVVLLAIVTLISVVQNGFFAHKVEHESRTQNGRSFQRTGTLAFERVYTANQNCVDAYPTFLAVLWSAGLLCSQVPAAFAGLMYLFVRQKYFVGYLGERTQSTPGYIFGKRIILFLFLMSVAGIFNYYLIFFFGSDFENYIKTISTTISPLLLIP
The assay can be described thus: FLAP Binding Assay. Conditions: competition with radiolabelled Compound A; 100,000×g pellet membranes from human leukocyte; 20 minute incubation at room temperature. The protocol: A 100,000×g pellet from human leukocyte 10,000×g supernatants (1) is the source of FLAP. The 100,000×g pellet membranes were resuspended in Tris-Tween assay buffer (100 mM Tris HCl pH 7.4, 140 mM NaCl, 2 mM EDTA, 0.5 mM dithiothreitol, 5% glycerol, 0.05% Tween 20) to yield a final protein concentration of 50 μg to 150 μg/ml. Aliquots (100 μl) of membrane suspension were added to 12 mm×75 mm polypropylene tubes containing 100 μl Tris-Tween assay buffer, 30,000 cpm of Compound A in 5 μl MeOH:assay buffer (1:1), and 2 μl dimethyl sulfoxide or competitor (i.e., the compound to be tested) in dimethyl sulfoxide. Compound B (10 μM final concentration) was used to determine non-specific binding. After a 20 minute incubation at room temperature, tube contents were diluted to 4 ml with cold 0.1 M Tris HCl pH 7.4, 0.05% Tween 20 wash buffer and the membranes were collected by filtration of GFB filters presoaked in the wash buffer. Tubes and filters were rinsed with 2×4 ml aliquots of cold wash buffer. Filters were transferred to 12 mm×3.5 mm polystyrene tubes for determination of radioactivity by gamma-scintillation counting.
Specific binding is defined as total binding minus non-specific binding. Total binding was Compound A bound to membranes in the absence of competitor; non-specific binding was Compound A bound in the presence of 10 uM Compound B. Preparation of Compound A is described in reference 1, below. The IC50 values were obtained by computer analysis (see reference 2, below) of the experimental data.
In the case of `COc1cncc(-c2ccc(C(C)(c3ccc(-c4noc(C(C)(C)O)n4)cn3)C(C)C)cc2)c1` (stereo not shown) [Example 1Ac, 2-[3-(6-{1-[4-(5-methoxypyridin-3-yl)phenyl]-1,2-dimethylpropyl}pyridin-3-yl)-1,2,4-oxadiazol-5-yl]propan-2-ol], the IC50 (usually the concentration that inhibits the measured activity by half) was 2.1 nM. The molecule `COc1cncc(-c2ccc(C(C)(c3ccc(-c4noc(C5(N)CC5)n4)cn3)C(C)C)cc2)c1` (stereo not shown) [Example 2b] returned a concentration for half-maximal inhibition (IC50) of 3.6 nM. `COc1cncc(-c2ccc(C(C)(c3ccc(-c4ccc(C(F)(F)F)nn4)cn3)C(C)C)cc2)c1` (stereo not shown) [Example 4Ad, 3-(6-{1-[4-(5-methoxypyridin-3-yl)phenyl]-1,2-dimethylpropyl}pyridin-3-yl)-6-(trifluoromethyl)pyridazine] gave an IC50 of 1.4 nM.

Take `COc1cncc(-c2ccc(C(C)(c3ccc(-c4ccc(C(C)(C)O)nn4)cn3)C(C)C)cc2)c1` (stereo not shown) [Example 4d, 2-[6-(6-{1-[4-(5-methoxypyridin-3-yl)phenyl]-1,2-dimethylpropyl}pyridin-3-yl)pyridazin-3-yl]propan-2-ol]: the IC50 is 1.1 nM. `CC(C)C(C)(c1ccc(-c2cnc(N)nc2)cc1)c1ccc(-c2ccc(C(C)(C)O)nn2)cn1` (stereo not shown) [Example 4f, 2-[6-(6-{1-[4-(2-aminopyrimidin-5-yl)phenyl]-1,2-dimethylpropyl}pyridin-3-yl)pyridazin-3-yl]propan-2-ol] showed an IC50 of 0.5 nM.

`CC(C)C(C)(c1ccc(-c2ccc(N)nn2)cc1)c1ccc(-c2ccc(C(C)(C)O)nn2)cn1` (stereo not shown) [Example 4g, 2-[6-(6-{1-[4-(6-aminopyridazin-3-yl)phenyl]-1,2-dimethylpropyl}pyridin-3-yl)pyridazin-3-yl]propan-2-ol] displayed an IC50 of 0.6 nM. As for `COc1cncc(-c2ccc(C(C)(c3ccc(-c4ccc(S(C)(=O)=O)nn4)cn3)C(C)C)cc2)c1` (stereo not shown) [Example 5a, 3-(6-{1-[4-(5-methoxypyridin-3-yl)phenyl]-1,2-dimethylpropyl}pyridin-3-yl)-6-(methylsulfonyl)pyridazine], the figure is 0.7 nM; as for `CC(C)C(C)(c1ccc(-c2cncc(OCc3ccccc3)c2)cc1)c1ccc(-c2ccc(C(F)(F)F)nn2)cn1` (stereo not shown) [Example 6Da, 3-[6-(1-{4-[5-(benzyloxy)pyridin-3-yl]phenyl}-1,2-dimethylpropyl)pyridin-3-yl]-6-(trifluoromethyl)pyridazine], 2.4 nM.

In turn, `CC(C)C(C)(c1ccc(-c2cncc(OCF)c2)cc1)c1ccc(-c2ccc(C(F)(F)F)nn2)cn1` (stereo not shown) [Example 6c, 3-[6-(1-{4-[5-(fluoromethoxy)pyridin-3-yl]phenyl}-1,2-dimethylpropyl)pyridin-3-yl]-6-(trifluoromethyl)pyridazine] came in with an IC50 of 2.8 nM.

Take `CC(C)C(C)(c1ccc(-c2cnc(N)nc2)cc1)c1ccc(C(C)(C)O)cn1` (stereo not shown) [Example 7Ad, 2-(6-{1-[4-(2-aminopyrimidin-5-yl)phenyl]-1,2-dimethylpropyl}pyridin-3-yl)propan-2-ol]: the IC50 was 1.2 nM. As to `CC(C)C(C)(c1ccc(-c2ccc(N)nn2)cc1)c1ccc(C(C)(C)O)cn1` (stereo not shown) [Example 7Bd, 2-(6-(1-[4-(6-aminopyridazin-3-yl)phenyl]-1,2-dimethylpropyl)pyridin-3-yl)propan-2-ol], the concentration for half-maximal inhibition (IC50) was found to be 2.3 nM. With `CC(C)(C)C(c1ccc(OCc2ccccn2)cc1)c1ccc(-c2nnc(N)o2)cn1` (stereo not shown) [Example 8a, 5-(6-{2,2-dimethyl-1-[4-(pyridin-2-ylmethoxy)phenyl]pronyl}pyridin-3-yl)-1,3,4-oxadiazol-2-amine], the half-maximal inhibitory concentration (IC50) turned out to be 5.8 nM. The result for `Cn1nnc(-c2ccc(C(c3ccc(OCc4ccccn4)cc3)C(C)(C)C)nc2)n1` (stereo not shown) [Example 9b, 2-{2,2-dimethyl-1-[4-(pyridin-2-ylmethoxy)phenyl]propyl}-5-(2-methyl-2H-tetrazol-5-yl)pyridine] reads 14 nM.

Take `COC(=O)c1ccc(-c2ccc(C(C)(c3ccc(OCc4ccccn4)cc3)C(C)C)nc2)nn1` (stereo not shown) [Example 10Ah, methyl 6-(6-{1,2-dimethyl-1-[4-(pyridin-2-ylmethoxy)phenyl]propyl}pyridin-3-yl)pyridazine-3-carboxylate]: the IC50 stood at 0.7 nM.

Regarding `CC(C)C(C)(c1ccc(OCc2ccccn2)cc1)c1ccc(-c2ccc(C(C)(C)O)nn2)cn1` (stereo not shown) [Example 10Aj, 2-[6-(6-{1,2-dimethyl-1-[4-(pyridin-2-ylmethoxy)phenyl]propyl}pyridin-3-yl)pyridazin-3-yl]propan-2-ol], the half-inhibitory concentration (IC50) was 0.7 nM. As for `CC(C)C(C)(c1ccc(OCc2nccs2)cc1)c1ccc(-c2noc(C(C)(C)O)n2)cn1` (stereo not shown) [Example 10Ca, 2-[3-(6-{1,2-dimethyl-1-[4-(1,3-thiazol-2-ylmethoxy)phenyl]propyl}pyridin-3-yl)-1,2,4-oxadiazol-5-yl]propan-2-ol], the figure is 2.9 nM.
